Data from article PMC9994261 (Cell, 2023).
In brackets after ≈: the same amount, converted by molar mass. Several values for one entry are separate records, joined by “and”; a condition that tells them apart may be missing. Equal entries are not always repeated. Where two headings read alike, the source gives them in different places.

Legend:
CYP3A4 = target: T1, CYP3A4 (Homo sapiens, UniProt P08684); assay: CYP3A4 reversible inhibition in human liver microsomes; format: in vitro ADME
T1 construct: human liver microsomes (purchased from BD Gentest as a pooled batch from 150 donors); tissue BD Gentest Cat#452117; host or cells: pooled human liver microsomes (150 donors)
T1 sequence (P08684 whole entry): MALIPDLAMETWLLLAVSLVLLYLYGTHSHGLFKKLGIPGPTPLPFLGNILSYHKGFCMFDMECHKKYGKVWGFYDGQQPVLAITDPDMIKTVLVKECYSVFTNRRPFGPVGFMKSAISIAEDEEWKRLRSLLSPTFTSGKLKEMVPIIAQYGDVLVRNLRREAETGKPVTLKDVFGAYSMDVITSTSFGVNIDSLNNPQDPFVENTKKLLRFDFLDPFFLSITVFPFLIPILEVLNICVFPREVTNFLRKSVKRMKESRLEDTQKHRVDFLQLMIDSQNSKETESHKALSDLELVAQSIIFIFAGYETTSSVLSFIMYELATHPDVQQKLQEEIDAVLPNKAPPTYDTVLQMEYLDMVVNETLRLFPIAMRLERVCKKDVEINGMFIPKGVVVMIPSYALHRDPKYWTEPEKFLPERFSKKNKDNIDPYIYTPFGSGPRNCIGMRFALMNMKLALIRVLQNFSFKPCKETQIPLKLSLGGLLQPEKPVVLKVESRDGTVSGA
Procedure: Incubations were performed with 0.1 mg/mL human liver microsomes (purchased from BD Gentest as a pooled batch from 150 donors) in a final incubation volume of 0.25 mL. The incubation medium contained 0.05 M phosphate buffer (pH 7.4) containing an NADPH regenerating system (including 1.3 mM NADP, 3.3 mM glucose 6-phosphate,3.3 mM MgCl2, and 1.0 U/mL glucose 6-phosphate dehydrogenase). Probe CYP3A4 substrates (midazolam at 3 μM and testosterone at 50 μM), were incubated for 10 and 30 min, respectively, with increasing concentrations of GM, MGM or CGM (concentration range: 1 - 30 μM). The reaction was stopped by adding acetonitrile to precipitate the proteins. The incubation mixtures were then centrifuged for 5 min at 10,000 × g, and an aliquot of the supernatant was analyzed using high-performance liquid chromatography coupled to mass spectrometry for the assessment of 1’-hydroxymidazolam and 6β-hydroxytestosterone metabolite formation.

[1] = format: in vitro ADME
[2] = pH 2, 50% acetonitrile/water
Mtb ribosome = format: biochemical, Mycobacterium tuberculosis
in vivo = details: male, Swiss, mouse, po; for AUC: 30 mg/kg, oral 30 mg/kg
Mtb methylated ribosome = assay: Mtb in vitro translation assay with methylated (erythromycin-treated) ribosome; format: biochemical, Mycobacterium tuberculosis
[3] = format: in vitro ADME; remark: listed apart in the source
Mtb H37Rv [4] = assay: microbe, parasite or virus in culture; format: cell-based, Mycobacterium tuberculosis; details: read-out: MIC for Mtb in liquid culture
RAW264.7 cells = format: in vitro ADME, murine; details: versus neutral analog SEQ-416
Procedure: RAW264.7 cells were allowed to adhere in 96 wells plates for 4 hours before compounds were added at 10 μM. Intracellular concentrations were measured by LC-MS/MS after cellular lysis. For each point, up to 4 hours, the Intra/Extra cellular ratio was calculated. Points are the mean ± SD of four tests. Clarithromycin and Azithromycin were used as references.

physchem [5] = details: pH 7.4
in vitro = in vitro ADME; details: human, Caco-2; read-out: Permeability in Caco2 cells (Papp)
[6] = format: in vitro ADME; remark: listed apart in the source
M. bovis BCG Pasteur = assay: microbe, parasite or virus in culture; format: cell-based, Mycobacterium bovis; details: for MIC: read-out: MIC in Pasteur M. bovis BCG
physchem [7] = format: physicochemical
[8] = format: in vitro ADME, human
Procedure: The metabolic stability of test compounds was determined as described.[57]^,[58] Incubation and experimental conditions with human hepatic microsomal fractions (purchased from BD Gentest as a pooled batch from 6 donors) were as follows: microsomal proteins, 1 mg/mL; bovine serum albumin, 1 mg/mL; substrate, 5 μM; incubation duration, 20 min; cytochrome P-450 monooxygenases (CYPs) and flavin containing monooxygenases (FMOs) cofactor, 1 mM NADPH. Enzyme activity was stopped with 1 volume of acetonitrile. […] For each test compound and for each microsomal preparation, three incubations were prepared: absolute reference in buffer (without enzyme material, i.e., microsomes); incubation without NADPH cofactor (with microsomal fractions); and incubation with NADPH (with microsomal fractions). For most compounds, biotransformation, as observed in hepatic microsomal fractions in the presence of the NADPH cofactor, consists of oxidative reactions catalyzed by either CYPs or FMOs. In these conditions, the percentage of total metabolism, which corresponds to oxidative metabolism, was determined as follows: [% total metabolism] ≈ [% oxidative metabolism] = [unchanged compound (UC) peak area − NADPH UC peak area + NADPH] × 100%, where NADPH corresponds to the enzyme cofactor for oxidation reactions catalyzed by either CYP or FMO.

physchem [9] = assay: physchem
[10] = test system: GFP-expressing Mtb H37Rv in RAW264.7 macrophages; assay: Intramacrophage assay (MIC for Mtb in macrophages); format: cell-based, Mycobacterium tuberculosis
erm37 mRNA = format: cell-based, Mycobacterium tuberculosis; details: inducer at 0.25µg/ml overnight, normalized to 23S
Mtb H37Rv [11] = assay: MIC80 after overnight pre-incubation of Mtb with subinhibitory macrolide; format: cell-based; details: Mycobacterium tuberculosis, read-out: MIC80
[12] = Mycobacterium tuberculosis variant bovis BCG, BCG

Structure (SMILES): CON=C1C[C@@H](C)O[C@@H](O[C@@H]2[C@@H](C)[C@H](O[C@H]3C[C@@H](C)N(C)C[C@H](C)O3)[C@@H](C)C(=O)O[C@H](C(C)CO[C@@H]3O[C@H](C)[C@@H](O)[C@@H](OC)[C@H]3OC)[C@H](C)[C@@H](OC(=O)CC(C)C)[C@@H](C)C(=O)[C@@](C)(OC(=O)NCc3ccccc3)C[C@@H]2C)[C@@H]1O (stereo partly drawn) [SEQ-372, (2R,3S,4R,5R,7S,9S,10S,11R,12S,13R)-7-[(benzylcarbamoyl)oxy]-2-(1-{[(2R,3R,4R,5R,6R)-5-hydroxy-3,4-dimethoxy-6-methyltetrahydro-2H-pyran-2-yl]oxy}propan-2-yl)-10-{[(2S,3R,6R)-3-hydroxy-4-(methoxyimino)-6-methyltetrahydro-2H-pyran-2-yl]oxy}-3,5,7,9,11,13-hexamethyl-6,14-dioxo-12-{[(2S,5R,7R)-2,4,5-trimethyl-1,4-oxazepan-7-yl]oxy}oxacyclotetradecan-4-yl 3-methylbutanoate]
- Cytochrome 3A4 inhibition (in words) (CYP3A4; human, pH 7.4): inhibited cytochrome 3A4
- IC50 (CYP3A4; midazolam, read-out: CYP3A4 inhibition, IC50 with midazolam as substrate): 1200 nM
- IC50 (CYP3A4; testosterone, read-out: CYP3A4 inhibition, IC50 with testosterone as substrate (T)): 3800 nM
- Metabolic degradation/clearance from human liver microsomes [1]: 0.006 mL/h/10^6 hepatocytes
- Chemical stability: t/12@pH 2 [2]: ∼25 h
- IC50 (Mtb ribosome; read-out: Inhibition of Mtb translation (IC50 μM)): 0.039 µM
- bioavailability (in vivo): 17%
- AUC (in vivo; AUC in lung @30 mg/kg, lung): 18000 ng·h/mL
- AUC (in vivo; AUC in plasma @30 mg/kg, plasma): 900 ng·h/mL
- IC50 (Mtb methylated ribosome; read-out: Translation inhibition of Mtb methylated ribosome (IC50 μM)): 0.054 µM
- Metabolic stability in mouse liver microsomes (% metabolized compound after 20 min) [3]: 8%
- MIC (Mtb H37Rv [4]; Mycobacterium tuberculosis, H37RV): 0.54 µM (≈ 0.606 µg/mL)
- Increase in macrophage accumulation compared with SEQ-416 (RAW264.7 cells): 20 fold
- logD (physchem [5]): 4.93
- Papp (in vitro): 2.2 ×10⁻⁶ cm/s
- Metabolic stability in rat liver microsomes (% metabolized compound after 20 min) [6]: 22%
- Growth inhibition (MIC80) (M. bovis BCG Pasteur): 0.29 µM and 0.25 µM and 0.34 µM
- MIC80 (M. bovis BCG Pasteur; Mycobacterium tuberculosis variant bovis BCG, BCG, read-out: Growth inhibition (MIC80)): 0.28 µM (≈ 0.314 µg/mL)
- MIC (M. bovis BCG Pasteur; [12]): 0.28 µM (≈ 0.314 µg/mL)
- solubility (physchem [7]; MCT pH 7.4, read-out: Solubility: MCT@pH 7.4): 1420 µg/mL (≈ 1270 µM)
- solubility (physchem [7]; aqueous buffer, PBS pH 7.4, read-out: Solubility: PBS@pH 7.4): 58.8 µg/mL (≈ 52.4 µM)
- Metabolic stability in human liver microsomes (% metabolized compound after 20 min) ([8]; 20 min incubation): 33%
- Metabolic stability in human liver microsomes (% metabolized compound after 20 min), (K) ([8]; in presence of ketoconazole CYP3A inhibitor (K)): 19(K) %
- Metabolic stability in human liver microsomes (% metabolized compound after 20 min), (Q) ([8]; in presence of quinidine CYP2D6 inhibitor (Q)): /32 (Q) %
- pKa (physchem [9]): 8.2
- MIC ([10]; Mycobacterium tuberculosis, H37RV, read-out: MIC for Mtb tuberculosis in macrophages): 0.06 µM (≈ 0.0673 µg/mL)
- Increased potency against Mtb in the macrophage compared with SEQ-416 ([10]; versus SEQ-416): approximately 10 fold

Structure (SMILES): CC[C@H]1OC(=O)[C@H](C)[C@@H](O[C@H]2C[C@@](C)(OC)[C@@H](O)[C@H](C)O2)[C@H](C)[C@@H](O[C@@H]2O[C@H](C)C[C@H](N(C)C)[C@H]2O)[C@](C)(OC)C[C@@H](C)C(=O)[C@H](C)[C@@H](O)[C@]1(C)O [Clarithromycin]
- erm37 mRNA fold change (erm37 mRNA): 57 fold change
- IC50 (Mtb ribosome; non-methylated ribosome, read-out: IC50 ribosome): 0.354 µM
- IC50 (Mtb methylated ribosome; methylated ribosome, read-out: IC50 methylated ribosome): 88.1 µM
- MIC80 (Mtb H37Rv [11]; Without induction): 2 µM (≈ 1.5 µg/mL)
- MIC80 (Mtb H37Rv [11]; overnight pre-incubation with SEQ-9 0.125µg/ml): 4 µM (≈ 2.99 µg/mL)
- MIC80 (Mtb H37Rv [11]; overnight pre-incubation with SEQ-9 0.25µg/ml): 8 µM (≈ 5.98 µg/mL)
- MIC80 (Mtb H37Rv [11]; overnight pre-incubation with clarithromycin 0.125µg/ml): 8 µM (≈ 5.98 µg/mL)
- MIC80 (Mtb H37Rv [11]; overnight pre-incubation with clarithromycin 0.25µg/ml): 8 µM (≈ 5.98 µg/mL)
- MIC (Mtb H37Rv [4]; listed as clarithromycin): 8 µM (≈ 5.98 µg/mL)
- MIC (Mtb H37Rv [4]): 2 µM (≈ 1.5 µg/mL)
- MIC (M. bovis BCG Pasteur; [12]): 0.1 µM (≈ 0.0748 µg/mL)
